Counter-ions that a name gives are not always drawn.

One may read the melting point as the temperature of the solid-liquid transition. The molecule `COc1cc(C2=CCCCC2)c(Cl)cc1C(=O)N1Cc2ccc(C(=O)N(C)Cc3cccnc3)n2Cc2ccccc21` (as salt: tartaric acid salt) (hydrate or solvate) [Example 2, 10-(5-Chloro-4-cyclohex-1-en-1-yl-2-methoxybenzoyl)-N-methyl-N-(pyridin-3-ylmethyl)-10,11-dihydro-5H-pyrrolo[2,1-c][1,4]benzodiazepine-3-carboxamide L-(+)-tartaric acid salt hemihydrate] had a melting point of 138 to 177 °C.
